Results on 2 compounds are retold here after patent US12576083B2, “Combinational therapy of LSD1 inhibitors with P21 activators in the treatment of cancer” (Istituto Europeo di Oncologia S.r.l., priority 2017, dated 2026).

The test system of this assay is p21. Briefly: p21 expression in NB4 cells treated with HDAC inhibitors. It counts as cell-based. The following applies: with p21-shRNA or scramble shRNA. The protocol:
FIGS. 9A-9C. […] (FIG. 9B) NB4 cells were infected with SCR (control) or P21 shRNA, and knockdown was monitored by qPCR. Values are normalized against GAPDH. (FIG. 9C) Monitoring of p21 expression upon the indicated treatments. (SCR=Scramble shRNA, NI=Not Infected, HDACi=HDAC inhibitor=SAHA or TSA).
NB4 cells were treated with HDAC inhibitors, trichostatin A (TSA) and suberoylanilide hydroxamic acid (SAHA), in combination with p21-shRNA or scramble shRNA (SCR). NB4 cells with p21 knock-down without HDAC inhibitor treatment (p21KD-DMSO), NB4 cells without p21 knock-down and without HDAC inhibitor treatment (Scr-DMSO), untreated UF1 cells (UF1-DMSO) were included as control.

As for `CC(/C=C/C(=O)NO)=C\[C@@H](C)C(=O)c1ccc(N(C)C)cc1` [TSA, trichostatin A], the “p21 expression in NB4 cells” value is “induced p21 expression”.
Next, `O=C(CCCCCCC(=O)Nc1ccccc1)NO` [SAHA, suberoylanilide hydroxamic acid]: “induced p21 expression”.
